Patent publication US9782522B2, “Compositions and methods for treating and preventing neointimal stenosis” (Yale University, priority 2011, dated 2017)

Legend:
mammary epithelial cells = details: cited from earlier work
[1] = doses of 40 mg and 80 mg; cited from earlier work
[2] = tested on: TGF-β types I and II receptors; details: cited from earlier work
[3] = tested on: TGF-β1-induced smad2/3 nuclear localization; details: cited from earlier work
Smad2/3 phosphorylation = details: cited from earlier work
let-7 family miRNAs = test: qRT-PCR let-7 miRNA expression in endothelial cells; assay type: cell-based, human; details: normal EC (HUAEC); U0126 at 10 μM
Protocol: Quantitative PCR analysis of 88 miRNA was performed using Human Cell Differentiation & Development RT^2 Profiler™ PCR Arrays (MAH-103A, QIAGEN) following the manufacturer's protocol. Validation of microRNA array data was performed with the RT^2 miRNA qPCR Assays and RT-PCR Primer Sets according to the manufacturer's instructions (QIAGEN). Primers for human mature let-7a (MPH00001A), let-7b (MPH00002A), let-7c (MPH00003A), let-7d (MPH00004A), let-7e (MPH00005A), let-7f (MPH00006A), let-7g (MPH00007A), mir-98 (MPH00480A), SNORD47 (MPH01660A) were from QIAGEN. Primers for mouse mature let-7a (MPM00483A), let-7b (MPM00484A), let-7c (MPM485A), let-7d (MPM00486A), let-7e (MPM00487A), let-7f (MPM00488A), let-7g (MPM00489A), let-7i (MPM00490A), mir-98 (MPM00875A) were from QIAGEN. Individual miRNA expression was normalized in relation to expression or small nuclear U6B RNA, a commonly used internal control for miRNA quantification assay. PCR amplification consisted of 10 min of an initial denaturation step at 95° C., followed by 45 cycles of PCR at 95° C. for 30 s, 60° C. for 30 s.
Recombinant human FGF2 (R&D) and TGFβ1 (Peprotech) were reconstituted in 0.1% BSA/PBS. U0126 (Sigma), a MEK inhibitor, was reconstituted in DMSO and used at a final concentration of 10 μM. […]

HUAEC = test: qRT-PCR mRNA expression of TGFβ signaling and Endo-MT markers in endothelial cells; assay type: cell-based, human; details: primary EC in vitro following FRS2 knockdown; lentiviral let-7 expression
Excerpt: Human 293T T17 cells (ATCC CRL-11268) were maintained in Dulbecco's modified Eagle's medium (Gibco) with 10% fetal bovine serum (Invitrogen) and penicillinstreptomycin (Gibco). Primary human mammary epithelial cells (HuMEC, Invitrogen), were maintained in HuMEC basal serum free medium with HuMEC supplement (Invitrogen 12754-016) and bovine pituitary extract (Invitrogen 13028-014). Human foreskin cells (ATCC CRL-1079Sk) were maintained in Minimum Essential Medium (ATCC) with 10% fetal bovine serum (Hyclone), β-mercaptoethanol (Sigma), and penicillin-streptomycin (Gibco). Primary human atrial cells (passage 3-5; gift from Y. Qyang, Yale University School of Medicine) were maintained in Dulbecco's modified Eagle's medium (Gibco) with 10% fetal bovine serum (Invitrogen), L-glutamine (Gibco), Sodium pyruvate (Gibco), Non-essential amino acid (Gibco), and penicillin-streptomycin (Gibco). HUAEC (human umbilical artery endothelial cells, passage 5-10, Lonza) were cultured in EBM-2 supplemented with EGM-2-MV bullet kit (Lonza). HUVEC (human umbilical vein endothelial cells, passage 3-7, Yale Vascular Biology and Therapeutics) were cultured in M199 with ECGS, supplemented with 20% FBS (Sigma), L-glutamine (Gibco), and penicillin-streptomycin (Gibco). Culture vessels were coated with 0.1% gelatin (Sigma) for 30 min at 37° C. immediately prior to cell seeding. Primary mouse endothelial cells were isolated from the heart using rat anti-mouse CD31 antibody and Dynabeads (Invitrogen) as previously described (Partovian C, et al. Mol Cell. 32(1):140 (2008)).
RNA was isolated using RNeasy® plus Mini Kit (Qiagen) and converted to cDNA using iScript™ cDNA synthesis kit (Bio-Rad). Quantitative real-time PCR (qRT-PCR) was performed using Bio-Rad […] (Bio-Rad) by mixing equal amount of eDNAs, iQ™ SYBR® Green Supermix (Bio-Rad) and gene specific primers. All reactions were done in a 25 μl reaction volume in duplicate. Data were normalized to endogenous β-actin. Values are expressed as fold change in comparison to control. Mouse TGFβ gene expression was quantified via qRT-PCR with TaqMan® Gene Expression Assays (Mm00441726_m1; Applied Biosystems) and HPRT (Mm00441258_1; Applied Biosystems) as endogenous control followed the manufacturer's recommendation. Quantitative PCR analysis of 84 TGFβ and epithelial to mesenchymal transition (EMT) related genes were performed using Human TGFβ BMP signaling pathway (PAHS-035D, QIAGEN) and Human Epithelial to Mesenchymal Transition (PAHS-090D, QIAGEN) RT^2 Profiler™ PCR Arrays following the manufacturer's protocol. RT^2 Profiler™ PCR arrays were run on a Bio-Rad CFX96 machine (Bio-Rad). Duplicate arrays were run per condition for control and FRS2 knockdown human umbilical arterial endothelial cells (HUAEC). Data analysis was performed using the manufacturer's integrated web-based software package for the PCR Array System using cycle threshold (Ct)-based fold-change calculations.
Recombinant human FGF2 (R&D) and TGFβ1 (Peprotech) were reconstituted in 0.1% BSA/PBS. U0126 (Sigma), a MEK inhibitor, was reconstituted in DMSO and used at a final concentration of 10 μM. SB431542 (Sigma), a TGFBR1 kinase inhibitor, was reconstituted in DMSO and used at a final concentration of 10 μM in cell culture. Actinomycin D (Sigma), a DNA transcription suppressor, was reconstituted in acetone and used at a final concentration of 10 μg/ml in cell culture. […]

Cc1cccc(-c2nc(NCc3cccc(C#N)c3)sc2-c2ccc3ncnn3c2)n1 [EW-7203, 3((5-([1,2,4]triazolo[1,5-a]pyridin-6-yl)-4-(6-methylpyridin-2-yl)thiazol-2-ylamino)methyl)benzonitrile]
Endo-MT (mammary epithelial cells): inhibits | TGF-β1-induced Smad signaling (mammary epithelial cells): inhibits

Cc1cccc(-c2nn3c(c2-c2ccnc4ccc(C(N)=O)cc24)CCC3)n1 [LY2157299, 4-(2-(6-methylpyridin-2-yl)-5,6-dihydro-4H-pyrrolo[1,2-b]pyrazol-3-yl)quinoline-6-carboxamide]
Tolerability [1]: well tolerated

CCCCc1nc(Cl)c(CO)n1Cc1ccc(-c2ccccc2-c2nnn[nH]2)cc1 [Losartan, (2-butyl-4-chloro-1-{[2′-(1H-tetrazol-5-yl)biphenyl-4-yl]methyl}-1H-imidazol-5-yl)methanol]
Expression of TGF-β types I and II receptors [2]: downregulate

Cc1cccc(-c2[nH]c(C(C)(C)C)nc2-c2ccc3nccnc3c2)n1 [SB525334, 6-[2-(1,1-Dimethylethyl)-5-(6-methyl-2-pyridinyl)-1H-imidazol-4-yl]quinoxaline]
TGF-β1-induced mRNA expression [3]: inhibits | TGF-β1-induced smad2/3 nuclear localization [3]: inhibits

Cc1cccc(-c2nc(C34CCC(C(N)=O)(CC3)CC4)[nH]c2-c2ccc3c(c2)OCO3)n1 [SM16, 4-(5-(benzo[d][1,3]dioxol-5-yl)-4-(6-methylpyridin-2-yl)-1H-imidazol-2-yl)bicyclo[2.2.2]octane-1-carboxamide]
TGF-β and activin-induced Smad2/3 phosphorylation (Smad2/3 phosphorylation): blocks

N#CC(=C(/N)Sc1ccccc1N)/C(C#N)=C(\N)Sc1ccccc1N [U0126]
Expression of let-7 family miRNAs (let-7 family miRNAs): decrease

FGF2: Recombinant human FGF2 (R&D)
Expression of let-7 family miRNAs (let-7 family miRNAs): time dependent increase

B1: Let-7b/c: let-7b and let-7c miRNAs expressed from lentivirus vector (pre-let-7b, pre-let-7c) (nucleic acid, listed as Homo sapiens)
chain: GCAUCCGGGUUGAGGUAGUAGGUUGUAUGGUUUAGAGUUACACCCUGGGAGUUAACUGUACAACCUUCUAGCUUUCCUUGGAGC
Expression of all SMC and mesenchymal markers (HUAEC): declined to pre-FRS2 knockdown levels | TGFβR1 and SMAD2 expression (HUAEC): fully inhibited
